We go through nine compounds from US9603980B2, “Layer-by-layer stereocomplexed polymers as drug depot carriers or coatings in medical devices” (Cardinal Health Switzerland 515 GmbH, priority 2008, dated 2017).

pIC50: −log10 of the molar value.

Data set [1] relates to human coronary artery smooth muscle cells. The data set can be described thus: Anti-proliferative activity in non-synchronized cultured cells stimulated with two percent fetal bovine serum. The data set is classed as cell-based. From the text: The multiple curves represent various concentrations of mycophenolic acid ranging from zero to one thousand nanomolar concentrations.
FIG. 58 illustrates, in graphical format, the anti-proliferative activity of cladribine in non-synchronized cultured human coronary artery smooth muscle cells stimulated with two percent fetal bovine serum.
The multiple curves represent various concentrations of cladribine ranging from zero to nine hundred nanomolar concentrations.

The nature of data set [2]: In vivo release kinetics from stent coatings, porcine pharmacokinetics studies.
From the text: The topcoat is two hundred micro grams.
(§1) The basecoat is applied to Bx Velocity® stents and implanted into Yorkshire pigs.
as §1

For data set [3], the system named is cell viability. The data set can be described thus: Cell viability assay. The data set is classed as cell-based. The source says: (§2) The multiple curves represent various concentrations of topotecan ranging from zero to three hundred nanomolar concentrations.
(§3) The multiple curves represent various concentrations of etoposide ranging from zero to eight hundred nanomolar concentrations.

Data set [4] relates to human coronary artery smooth muscle cells. Briefly: Anti-proliferative activity in synchronized cultured cells stimulated with two percent fetal bovine serum. Format: cell-based.
From the text: as §2, §3
The multiple curves represent various concentrations of Panzem® ranging from zero to 100 micromolar concentrations.

The nature of data set [5]: Porcine drug elution PK study of dual drug eluting coating. The data set is classed as in vivo. Particulars: after eight (8) days of implantation, single-layer coating of FIG. 83. The source says:
Another critical parameter for the performance of the thrombus resistance of a device coated with cilostazol is the duration of the drug release from the coating. This is of particular significance in the two weeks after device implantation. In the porcine drug elution PK studies of the dual drug eluting coating, both cilostazol and sirolius were slowly released from the coating, resulting in a sustained drug release profile. The purpose of the porcine PK study is to assess the local pharmacokinetics of a drug eluting stent at a given implantation time. Normally three stents are implanted in three different coronary arteries in a pig for a given time point and then retrieved for total drug recovery analysis. The stents are retrieved at predetermined time points; namely, 1, 3 and 8 days. The stents are extracted and the total amount of drug remaining on the stents is determined by analysis utilizing HPLC (high performance liquid chromatography) for total drug amount. The difference between the original amount of drug on the stent and the amount of drug retrieved at a given time represents the amount of drug released in that period. The continuous release of drug into surrounding arterial tissue is what prevents the neointimal growth and restenosis in the coronary artery. A normal plot represents the percentage of total drug released (%, y-axis) vs. time of implantation (day, x-axis). […]

Data set [6] in a line: Drug concentration in liquid formulations (liquid chromatography / HPLC assay). The data set is classed as physicochemical. From the text: In accordance with exemplary embodiments of the present invention, a series of liquid formulations were developed for the local or regional delivery of water insoluble compounds such as sirolimus and its analogs, including CCI-779, ABT-578 and everolimus, through weeping balloons and catheter injection needles. […] These liquid formulations increase the apparent solubility of the pharmacologically active but water insoluble compounds by two to four orders of magnitude as compared to the solubility limits of the compounds in water. These liquid formulations rely on the use of a very small amount of organic solvents such as Ethanol (typically less than two percent) and a larger amount of safe amphiphilic (of or relating to a molecule having a polar, water soluble group attached to a non-polar, water insoluble […]) excipients such as polyethylene glycol (PEG 200, PEG 400) and vitamin E TPGS to enhance the solubility of the compounds. These liquid formulations of highly water insoluble compounds are stable and readily flowable at room temperature. Certain excipients, such as Vitamin E TPGS and BHT may be utilized to enhance the storage stability of sirolimus compounds through their anti-oxidation properties. […]

Data set [7] relates to human smooth muscle cells. The data set can be described thus: Cladribine Example: PDGF-stimulated cell proliferation, cell count on day six. The data set is classed as cell-based. The settings on record: from IC50 values. As to the method: To assess the ability of cladribine to prevent cell proliferation, human smooth muscle or endothelial cells (Clonetics, Walkersville, Md.) were seeded at a density of 2000 cells/cm^2 (approximately 3600 cells/well) into each well of 12-well plates and cultured with 1.5 ml of growth medium containing five percent fetal calf serum (FCS). After twenty-four hours, the growth medium was changed and fresh medium containing 10 ng/ml platelet-derived growth factor AB (PDGF AB; LIFE Technologies), as well as various concentrations of cladribine (0.001-10,000 nM) were added with triplicate wells. Medium was replaced with fresh cladribine-containing medium after three days. On day six, cells were detached by trypsinization to yield a cell suspension, lightly centrifuged to pellet and then counted manually using a Neubauer hemocytometer system. Cell viability was assessed by trypan blue exclusion.

The test system of data set [8] is human coronary artery smooth muscle cell. Briefly: MTS cytotoxicity assay. Format: cell-based. The settings on record: concentrations up to 30,000.00 nanomolar (6.6 to 30,000.00 nanomolar tested). The source says: Typically, a control is utilized to determine baseline toxicity.
(Formazan colour is commonly taken as a measure of viable cells.)

Data set [9] concerns tumor cell lines. The settings on record: cited from earlier work.
Data set [10] has as its system human coronary artery smooth muscle cell. Briefly: Inhibition of coronary artery smooth muscle cell proliferation by trichostatin A, in vitro cell culture study. Format: cell-based. From the text: FIG. 51 is a graph of the inhibition of coronary artery smooth muscle cells by trichostatin A in a cell culture study.
Data set [11] deals with human coronary artery smooth muscle cells. Briefly: Antiproliferative effects of PX867 on cultured cells. Format: cell-based. From the text:
A PI3 kinase inhibitor can affect restinosis when administered by local or systemic delivery alone or in combination with sirolimus. FIGS. 87 and 88 illustrate the antiproliferative effects of PX867 on cultured human coronary artery smooth muscle cells alone (FIG. 87) or in combination with sirolimus (FIG. 88). […] Curve 8702 illustrates the percent inhibition for various concentrations. In FIG. 88, the six curves 8802, 8804, 8806, 8808, 8810 and 8812 represent various concentrations of PX867 with various concentrations of sirolimus. […] More specifically, curve 8812 illustrates the percent inhibition for a 240 nM PX-867 concentration. […] This may be compared to curve 8804 which represents a 15 nM PX-867 concentration. As one can see, the percent inhibition increases as the concentration of sirolimus increases. Accordingly, a potent PI3 kinase inhibitor, such as PX-867, can improve the inhibition of coronary artery smooth muscle cell proliferation either as a stand alone treatment or via combination with another restenotic agent, such as sirolimus.

With `COc1c(C)c2c(c(O)c1C/C=C(\C)CCC(=O)O)C(=O)OC2` [mycophenolic acid], the “effect of addition on the anti-proliferative rapamycin dose response curve” value in data set [1] (mycophenolic acid zero to one thousand nanomolar, leftward and upward shift) is reported as “potentiates the anti-proliferative activity of rapamycin”. The “in vivo release from basecoat, compared with co-loaded drug” value in data set [2] (porcine, EVA/BMA basecoat with rapamycin and mycophenolic acid 180 μg each, with or without BMA topcoat) is “elutes more completely over a shorter duration than the rapamycin”.

Turning to `COc1cc([C@@H]2c3cc4c(cc3[C@@H](O[C@@H]3O[C@@H]5CO[C@@H](C)O[C@H]5[C@H](O)[C@H]3O)[C@H]3COC(=O)[C@H]23)OCO4)cc(OC)c1O` [Etoposide, etoposide], the cytotoxicity result in data set [3] (concentrations up to ten micromolar) is given as “non-cytotoxic”. Also, the “effect of addition to cells treated with rapamycin” value (shortened to “effect of addition to cells treated”) in data set [4] (etoposide 255.7 to eight-hundred nanomolar) is recorded as “increases the percent inhibition of rapamycin alone”.

In the case of `CO[C@H]1C[C@@H]2CC[C@@H](C)[C@@](O)(O2)C(=O)C(=O)N2CCCC[C@H]2C(=O)O[C@H]([C@H](C)C[C@@H]2CC[C@@H](O)[C@H](OC)C2)CC(=O)[C@H](C)/C=C(\C)[C@@H](O)[C@@H](OC)C(=O)[C@H](C)C[C@H](C)/C=C/C=C/C=C/1C` [rapamycin], in [5], the “drug remaining in the drug coating” value is reported as ~80%. In addition, the “in vivo release rate, compared with co-loaded drug” value in data set [2] (porcine, PVDF basecoat with PVDF topcoat) is “slower release rate than that of mycophenolic acid”. In addition, the “concentration relative to the solubility of sirolimus in water” value in data set [6] (4 mg/ml formulation) was “four hundred to about one thousand”.

Consider `CC[C@@]1(O)C(=O)OCc2c1cc1n(c2=O)Cc2cc3c(CN(C)C)c(O)ccc3nc2-1` [Topotecan, topotecan], for which the cytotoxicity entry in data set [3] (concentrations up to one micromolar) is listed as “non-cytotoxic”. Besides, the “effect of addition to cells treated” value in data set [4] (topotecan 18.8 to 300 nanomolar) was “increases the percent inhibition of rapamycin alone”.

Consider `CO[C@H]1C[C@@H]2CC[C@@H](C)[C@@](O)(O2)C(=O)C(=O)N2CCCC[C@H]2C(=O)O[C@H]([C@H](C)C[C@@H]2CC[C@@H](OC(=O)C(C)(CO)CO)[C@H](OC)C2)CC(=O)[C@H](C)/C=C(\C)[C@@H](O)[C@@H](OC)C(=O)[C@H](C)C[C@H](C)/C=C/C=C/C=C/1C` [CCI-779], for which, in data set [6] (ethanol less than two percent, Vitamin E TPGS, water), the “concentration in the final solution (HPLC assay)” value came out at 15000 µg/mL.

For the compound `Nc1nc(Cl)nc2c1ncn2[C@H]1C[C@H](O)[C@@H](CO)O1` [Cladribine, 2-chlorodeoxyadenosine], in data set [1] (cladribine 56.25 to 900 nanomolar), the “effect of addition to cells treated” value is reported as “increases the percent inhibition of rapamycin alone”. The “inhibition of human coronary artery smooth muscle cell proliferation” value in [1] (non-synchronized cells, two percent fetal bovine serum) is given as “completely inhibits”. In addition, in data set [2] (Yorkshire pigs, EVA/BMA basecoat, BMA topcoat, Bx Velocity stents), the “in vivo elution from polymeric stent coating, compared with co-loaded drug” value was “elutes more rapidly than rapamycin”. The “potency as inhibitor of smooth muscle cells relative to endothelial cells” value in data set [7] is listed as “approximately twice”.

Take `COc1cc2c(cc1O)CC[C@@H]1[C@@H]2CC[C@]2(C)[C@@H](O)CC[C@@H]12` [Panzem®, 2-methoxyestradiol]: the “effect of addition to cells treated” value in data set [4] (Panzem 0.813 to 100 micromolar) is listed as “increases the percent of inhibition of rapamycin alone”. Further, in [4] (agent alone), the “inhibition of human coronary artery smooth muscle cell proliferation in vitro” value is reported as “extremely effective inhibitor”. Further, the “human coronary artery smooth muscle cell survival” value in data set [8] is “do not reduce human coronary artery smooth muscle cell survival”.

As for `CC(/C=C/C(=O)NO)=C\[C@@H](C)C(=O)c1ccc(N(C)C)cc1` [trichostatin A], the “anti-proliferative IC50's” value in [9] is listed as “low nM range”. Further, the “inhibition of human coronary artery smooth muscle cell proliferation” value in data set [10] was “completely inhibit”. Also, in [10] (read-out: anti-proliferative IC50), the pIC50 was ~8.22.

On to `COC[C@H]1OC(=O)/C(=C\N2CCCC2)C2=C(O)C(=O)C3=C([C@H](OC(C)=O)C[C@]4(C)C(=O)CC[C@@H]34)[C@]21C` [PX-867], for which, in data set [11] (PX867 alone, concentration of about 10^−6 (unit not given)), the “inhibition of coronary artery smooth muscle cell proliferation” value was “one hundred”. Moreover, the combination with sirolimus result in data set [11] (PX-867 15 to 240 nM with various concentrations of sirolimus) is recorded as “strong synergistic effect”.

By pIC50 is commonly meant the negative decadic logarithm of the IC50, by convention in mol/L.
